Results from US8058442B2 (Technion Research and Development Foundation Ltd., priority 2002, dated 2011).
Read-outs that look alike come from different tables or passages of the source.

Assays:
[1] = Iron chelation in solution: fluorescence dequenching of iron-quenched calcein; settings: Fe-CAL in HBS pH 7.4, room temperature, 1 h incubation, read-out: half maximal dequenching level
Method: Iron binding was determined by the chelator capacity for restoring the fluorescence of iron-quenched calcein (CAL), a dynamic fluorescent metallosensor. The iron-scavenging properties of the chelators were assessed in solution, by mixing iron salts with free CAL.
Iron precomplexed calcein (Fe-CAL) solutions of 1 μm (in Hepes 20 mM buffered saline, pH 7.4=HBS) were incubated in the presence of the indicated concentrations of different chelators at room temperature and the fluorescence intensity (475 nm->520 nm) followed with time in a Tecan fluorescence plate reader, using 96-well culture plates (Nunc) at 100 μl final volume. The time-dependent complexation of iron from Fe-CAL by the chelators was followed by fluorescence dequenching. The fluorescence intensity attained after 1 h incubation is shown as a function of the chelator concentration.
The corresponding half maximal dequenching level for the corresponding chelator was (in μM) (rank order from the fastest acting to the slowest): […]

rat brain MAO-B = biological target: T1, rat brain MAO-B (Rattus norvegicus, UniProt P19643); assay: In vitro inhibition of rat brain MAO-B; assay type: biochemical; settings: read-out: inhibition of MAO-B
T1 construct: from tissue; host or cells: rat brain homogenate, 4500 g pellet
T1 sequence (P19643 1-520): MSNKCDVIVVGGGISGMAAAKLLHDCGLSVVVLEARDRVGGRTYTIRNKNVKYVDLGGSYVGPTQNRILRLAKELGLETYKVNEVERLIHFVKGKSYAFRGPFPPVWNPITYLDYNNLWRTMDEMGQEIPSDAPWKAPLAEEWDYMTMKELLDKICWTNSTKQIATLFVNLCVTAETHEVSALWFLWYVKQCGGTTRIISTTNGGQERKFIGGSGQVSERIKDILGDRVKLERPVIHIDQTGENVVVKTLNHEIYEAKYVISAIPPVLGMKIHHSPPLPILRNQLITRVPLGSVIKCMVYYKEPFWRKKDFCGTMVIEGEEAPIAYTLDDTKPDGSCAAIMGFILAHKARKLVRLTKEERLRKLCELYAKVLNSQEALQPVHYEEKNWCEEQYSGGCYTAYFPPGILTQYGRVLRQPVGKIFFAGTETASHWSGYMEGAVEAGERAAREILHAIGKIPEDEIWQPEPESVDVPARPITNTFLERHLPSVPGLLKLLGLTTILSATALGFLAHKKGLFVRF
Method: Rats were decapitated and the brains were quickly taken into a weighted ice-cold sucrose buffer (0.32 M), and their weights were determined. All subsequent procedures were performed at 0-4° C. The brains were homogenized in 0.25 M sucrose (one part tissue to 20 parts sucrose) in a Teflon glass homogenizer followed by the addition of sucrose buffer to a final concentration of 10% homogenate. The homogenates were centrifuged at 600 g for 15 min. The supernatant fraction was taken out and centrifuged at 4500 g for 30 min, the pellet was diluted in 0.32 M sucrose buffer and kept frozen for later assaying of MAO. Protein concentration was determined with Bradford reagent at 595 nm, using bovine serum albumin as a standard.
The test compound was added to a suitable dilution of the enzyme preparation (70 μg protein for MAO-B and 150 μg MAO-A assay) in 0.05 M phosphate buffer (pH 7.4). The mixture was incubated together with […], a specific inhibitor of MAO-B (for determination of MAO-A) or […] clorgylin, a specific inhibitor of MAO-A (for determination of MAO-B). Incubation was carried for 1 h at 37° C. before addition of ^14C-5-hydroxytryptamine binoxalate ([…]) for determination of MAO-A, or ^14C-phenylethylamine 100 µM for determination of MAO-B, and incubation continued for 30 min or 20 min, respectively. The reaction was stopped with 2 M ice-cold citric acid, and the metabolites were extracted and determined by liquid-scintillation counting in cpm units.
MAO-A and MAO-B activities were determined in rat brain homogenate in vitro following incubation with varying concentrations of the test compounds.
MAO-B activity in presence of the test compound was expressed as a percentage of that in control samples.

[2] = n-octanol/water shake-flask distribution coefficient; assay type: physicochemical
Source text: The partition coefficient (Pow) or the distribution ratio (Dow) between octanol and water are most commonly used measures of the hydrophobicity of compounds. Dow can depend on the concentration of solute, but at reasonably low concentrations. If the solute is in the same form in both phases, Dow becomes constant and is called the partition coefficient Pow. Pow plays an important role in determining the physico-chemical properties and the behaviour of numerous organic compounds in biological systems. Pow is applied to quantitative structure-activity relationship studies, and as a measure of hydrophobicity. All the partition measurements are carried out using a 1-octanol/water shake-flask procedure (Leo, A J. 1991, “Hydrophobic parameter: measurement and calculation”, Methods Enzymol. 202:544-91) or simply by the elution time of solute from HPLC column. Thereafter, the transport properties of the iron-complexes are examined in the water/lipid membrane system (liposomes), which mimics biomembranes much better than the octanol/water system (Breuer et al, 1995).
1-Octanol (Riedel-deHaën, synthesis grade (250-270 nm abs.<0.06) and glass distilled deionized water were used as the partitioning solutions. A Hewlett-Packard 8450A diode array spectrophotometer was used for the quantitative determination of the tested com-pounds in the standard solutions and in the partitioned solutions. The aqueous phase stock solutions were shaken with an excess of 1-octanol to presaturate them and were then allow-ed to stand overnight before use. The 1-octanol stock solutions were also presaturated with 10 mM NaOH and allowed to settle overnight. The experiments were performed in 10-ml stoppered centrifuge tubes. The tubes were inverted gently for 5 min and then, to assure complete phase separation, they were centrifuged for 20 min at 1,000-2,000 g. The aqueous and organic phases were removed separately and analyzed by UV spectrophotometry.
Lipophilicity plays an important role in drug absorption and distribution. The logarithm of the n-octanol/water distribution coefficients (logD) is the most commonly used measure of the lipophilicity of a drug candidate. Here we used an n-octanol/water shake-flask procedure to determine logD. […] In acidic and basic solution, all the test compounds have low log D values, which refer to a good hydrophilicity. This can be explained by the formation of oxinium chloride (in acid) and sodium oxinate (in base) derivatives.

SMILES	EC50 ([1]; FIG. 1A) [µM]	EC50 ([1]; FIG. 1B) [µM]	inhibition at 100 µM (rat brain MAO-B) [%]	logD ([2]; H2O, read-out: LogD in H2O)	D in 0.01N HCl ([2]; distribution ratio D = Corg/Caq, 0.01N HCl)	D in 0.01N NaOH ([2]; distribution ratio D = Corg/Caq, 0.01N NaOH)	D in H2O ([2]; distribution ratio D = Corg/Caq, H2O)	logD ([2]; pH 2, 0.01N HCl, read-out: LogD in 0.01N HCl)	logD ([2]; pH 12, 0.01N NaOH, read-out: LogD in 0.01N NaOH)	EC50 ([1]; FIG. 1C) [µM]	inhibition at 100 µM (rat brain MAO-B; 100 μM) [%]
C#CCN1CCN(Cc2ccc(O)c3ncccc23)CC1 [HLA20, 5-(4-propargylpiperazin-1-ylmethyl)-8-hydroxyquinoline]	3.5	5.4	42	1.57	0.025	0.70	37.02	-1.6	-0.16		
OCCN1CCN(Cc2ccc(O)c3ncccc23)CC1 [VK-28, 5-[4-(2-hydroxyethyl)piperazin-1-ylmethyl]-8-hydroxyquinoline, reference compound]		5.2								3.2	13.3
